One experiment has as its system MSSA (SH1000). Nature of the experiment: MIC against methicillin-susceptible S. aureus (MSSA). The experiment is classed as cell-based. The following applies: Staphylococcus aureus; MSSA (SH1000); 72 hours, 37 °C; read-out: MIC. The procedure: (§1) The term “minimum inhibitory concentration (MIC)” means the lowest concentration of an antimicrobial agent that will inhibit the visible growth of a microorganism after overnight incubation. MIC values against bacteria, for example, the Gram-positive Staphylococcus aureus and Enterococcus faecalis and the Gram-negative Escherichia coli and Pseudomonas aeruginosa were determined by standard methods. See also P. A. Wayne, Methods for Dilution Antimicrobial Tests for Bacteria that Grow Aerobically; Approved Standard, Ninth Edition, 2012, CLSI Document M07-A9, Vol. 32 No. 2.
(§2) Biological testing procedures were adapted from prior work by Melander and coworkers. For all biological assays, laboratory strains of methicillin-susceptible Staphylococcus aureus MSSA (SH1000), Staphylococcus aureus CA-MRSA (USA300-0114), Staphylococcus aureus HA-MRSA (ATCC 33591), Escherichia coli (MC4100), Enterococcus faecalis (OG1RF), Acinetobacter baumannii (ATCC 17978), were grown with shaking at 37 °C overnight from freezer stocks in 5 mL of the indicated media: SH1000, OG1RF, MC4100, USA300-0114, and ATCC 17978 were grown in BDTM Mueller-Hinton broth (MHB), whereas ATCC 33591 was grown in BDTM tryptic soy broth (TSB). The inoculum were then streaked onto Mueller-Hinton agar (MHA) plates and grown overnight at 37 °C. From the plates, single colonies were selected, diluted into 50 mL of fresh media and grown overnight at 37 °C with shaking for use in the MIC assays. Optical density (OD) measurements were obtained using a SpectraMax iD3 plate reader (Molecular Devices, United States).
(§3) Compounds were serially diluted two-fold from stock solutions (1.0 mM) to yield twelve 100 μL test concentrations, wherein the starting concentration of dimethyl sulfoxide (DMSO) was 2.5%. Overnight S. aureus, E. faecalis, E. coli, A. baumannii, USA300-0114 (CA-MRSA), and ATCC 33591 (HA-MRSA) cultures were diluted to ca. 10^6 CFU/mL in MHB or TSB and regrown to mid-exponential phase, as determined by optical density recorded at 600 nm (OD600). All cultures were then diluted again to ca. 10^6 CFU/mL and 100 μL were inoculated into each well of a U-bottom 96-well plate (Corning, 351177) containing 100 μL of compound solution. Plates were incubated statically at 37 °C for 72 hours upon which wells were evaluated visually for bacterial growth. The MIC was determined as the lowest concentration of compound resulting in no bacterial growth visible to the naked eye, based on the highest value in three independent experiments. Aqueous DMSO controls were conducted as appropriate for each compound.
(§4) The prepared library of biscationic amphiphilic compounds was assessed for performance as antibacterial disinfectants by determining the minimum inhibitory concentration (MIC) for each against a panel of bacteria. The bacteria selected for the study were chosen to evaluate the broad spectrum antimicrobial performance of the QPCs, and therefore, included both Gram-positive and Gram-negative bacterial strains, including those with known antimicrobial resistance mechanisms. These bacteria include the Gram-positive strains of methicillin-susceptible Staphylococcus aureus [MSSA; SH1000], community-acquired methicillin-resistant Staphylococcus aureus [CA-MRSA; USA 300-0114], hospital-acquired methicillin-resistant Staphylococcus aureus [HA-MRSA; ATCC 33591] and the […], Escherichia coli [MC4100], Acinetobacter baumannii [ATCC 17498] and Pseudomonas aeruginosa [PAO1].

For the next experiment, the system named is CA-MRSA (USA300-0114). The experiment can be described thus: MIC against community-acquired methicillin-resistant S. aureus (CA-MRSA). The conditions noted are these: Staphylococcus aureus, 72 h. It counts as cell-based. As for the experimental part:
as §1, §2, §3, §4

The subject of a further experiment is P. aeruginosa. The experiment can be described thus: MBEC, biofilm eradication, P. aeruginosa. It counts as cell-based, Pseudomonas aeruginosa. The conditions noted are these: 24 hours, 37 °C, TSB. As for the experimental part: A regrowth assay was used to establish the MBEC of a compound to evaluate the antibiofilm activity.
Biofilm eradication experiments were performed using a pegged-lid microtiter plate assay to determine the MBEC values for compounds of interest, as previously described. […] Sci. Rep. 2017, 7, 2003; and Raval, Y. S., Flurin, L., Mohamed, A., Greenwood-Quaintance, K. E., Beyenal, H., & Patel, R. In Vitro Activity of Hydrogen Peroxide and Hypochlorous Acid Generated by Electrochemical Scaffolds Against Planktonic and Biofilm Bacteria. Antimicrob Agents Chemother. 2021, 65, e01966-20. Briefly, […] of mid-log phase culture diluted to ca. 10^6 CFU/mL in tryptic soy broth (TSB) was added to wells of plat-bottom 96-well plates (Thermo Scientific, 266120) and covered with 96-pegged lid (Thermo Scientific, 445497). Plates were incubated to establish bacterial biofilms after incubation at 37 °C for 24 hours. The pegged lid was then removed, washed with PBS, and transferred to another 96-well plate containing 2-fold serial dilutions of the test compounds (the “challenge plate”). The total volume in each well was […], comprising of […] of compound diluted in water/DMSO, with a starting DMSO concentration of 2.5%, and […] of TSB. Plates were incubated statically at 37 °C for 24 hours. Next, the pegged lids were transferred to a fresh 96-well plate containing […] of TSB and incubated overnight at 37 °C. MBEC values were determined as the lowest test concentration that resulted eradicated biofilm (i.e., wells displaying no turbidity in the final plate).

By MIC is commonly meant the least concentration at which growth counts as inhibited. Consider `CCCCCCCCCCCC[N+](C)(C)CC[N+](C)(C)CCCCCCCCCCCC` [12(2)12, reference compound], for which the MIC in the experiment with MSSA (SH1000) and in the experiment on CA-MRSA (USA300-0114) was 2 µM throughout. The compound also gave an MBEC with P. aeruginosa of over 250 µM.
In the case of `CCCCCCCCCCCC[P+](C)(C)CC[P+](C)(C)CCCCCCCCCCC` [^MeP2P-12,12], the minimal inhibitory concentration (MIC) with MSSA (SH1000) and against CA-MRSA (USA300-0114) was 2 µM throughout. The compound also gave an MBEC with P. aeruginosa of over 250 µM.

The values are drawn from patent publication US20260374792A1, “PHENYL-FREE BISCATIONIC QUATERNARY PHOSPHONIUM COMPOUNDS AS ANTIMICROBIAL AGENTS” (priority 2022, published 2026).
